Laboratory results published in patent US7384931B2, “Constrained compounds as CGRP-receptor antagonists” (Bristol-Myers Squibb Company, priority 2004, dated 2008).

Key:
CGRP receptor [1] = target: T1, CGRP receptor (Homo sapiens, UniProt O60894+Q16602); test: Cyclic AMP functional antagonism assay in SK-N-MC cells; format: cell-based; set-up: SK—N-MC cells that endogenously express the human CGRP receptor; endogenous in cells; host or cells: SK-N-MC cells; details: inhibition of 0.3 nM CGRP-induced cyclic AMP formation, 15 min pre-incubation, read-out: cAMP Function IC50
Protocol: Cyclic AMP Functional Antagonism Assay. Antagonism of the compounds of invention was determined by measuring the formation of cyclic AMP (adenosine 3′5′-cyclic monophosphate) in SK—N-MC cells that endogenously express the human CGRP receptor. CGRP receptor complex is coupled with Gs protein and CGRP binding to this complex leads to the cyclic AMP production via Gs—dependent activation of an adenylate cyclase (Juaneda C et al., TiPS, 2000; 21:432-438; incorporated by reference herein). Consequently, CGRP receptor antagonists inhibit CGRP—induced cyclic AMP formation in SK—N-MC cells (Doods H et al., Br J Pharmacol, 2000; 129(3):420-423); incorporated by reference herein). For cyclic AMP measurements SK—N-MC cells were incubated with 0.3 nM CGRP alone or in the presence of various concentrations of the compounds of invention for 30 min at room temperature. Compounds of invention were pre-incubated with SK—N-MC cells for 15 min before the addition of CGRP to allow receptor occupancy (Edvinsson et al., Eur J Pharmacol, 2001, 415:39-44; incorporated by reference herein). Cyclic AMP was extracted using the lysis reagent and its concentration was determined by radioimmunoassay using RPA559 cAMP SPA Direct Screening Assay Kit (Amersham Pharmacia Biotech). IC50 values were calculated using Excel fit.

CGRP receptor [2] = target: T1, CGRP receptor; test: CGRP radioligand binding assay ([125I]-CGRP displacement, SK-N-MC homogenate); set-up: endogenous in cells; host or cells: SK-N-MC cells (homogenate/membrane pellet); details: displacement of [125I]-CGRP, room temperature 2 h
Outline: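 SK-N-MC cell homogenate (5 μg/well) was incubated 2 h at room temperature with [125I]-CGRP (diluted to 60 pM before addition) in 50 mM Tris-Cl pH 7.5, 5 mM MgCl2, 0.005% Triton X-100 plus protease inhibitors. Bound radioactivity was collected by filtration; 1 μM beta-CGRP defined non-specific binding. IC50 is 50% radioligand displacement.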

T1 sequence (Q16602 23-461): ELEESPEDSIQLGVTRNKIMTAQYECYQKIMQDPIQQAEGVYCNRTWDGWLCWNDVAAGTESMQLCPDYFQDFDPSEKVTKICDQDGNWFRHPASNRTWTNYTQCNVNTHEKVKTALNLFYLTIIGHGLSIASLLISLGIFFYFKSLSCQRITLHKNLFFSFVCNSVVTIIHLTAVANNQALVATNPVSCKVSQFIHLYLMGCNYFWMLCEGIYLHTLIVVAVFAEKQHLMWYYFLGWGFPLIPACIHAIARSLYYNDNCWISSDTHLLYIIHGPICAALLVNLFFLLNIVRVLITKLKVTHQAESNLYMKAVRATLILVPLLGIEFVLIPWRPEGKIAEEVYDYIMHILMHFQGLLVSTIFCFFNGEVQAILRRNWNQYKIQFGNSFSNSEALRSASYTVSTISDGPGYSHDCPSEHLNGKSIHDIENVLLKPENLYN
T1 sequence (O60894 27-148): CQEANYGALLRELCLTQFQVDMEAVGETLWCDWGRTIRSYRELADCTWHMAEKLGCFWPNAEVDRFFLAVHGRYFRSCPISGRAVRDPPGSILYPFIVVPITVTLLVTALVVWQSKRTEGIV

| SMILES | IC50 (CGRP receptor [1]) [nM] | IC50 (CGRP receptor [2]) [nM] |
| --- | --- | --- |
| O=C(C[C@@H]1Cc2cc(Cl)c3[nH]ncc3c2CN(Cc2ccncc2)C1=O)N1CCC(c2cc3ccccc3[nH]c2=O)CC1 [Example 52, (S)-4-Chloro-7-(2-oxo-2-(4-(2-oxo-1,2-dihydroquinolin-3-yl)piperidin-1-yl)ethyl)-9-(pyridin-4-ylmethyl)-6,7,9,10-tetrahydroazepino[3,4-e]indazol-8(3H)-one] | 0.1 to 10 | 0.1 to 10 |
| O=C(C[C@@H]1Cc2cc(Cl)c3[nH]ncc3c2CN(Cc2ccncc2)C1=O)N1CCC(n2cc(-c3ccccc3)[nH]c2=O)CC1 [Example 53, (S)-4-Chloro-7-(2-oxo-2-(4-(2-oxo-4-phenyl-2,3-dihydroimidazol-1-yl)piperidin-1-yl)ethyl)-9-(pyridin-4-ylmethyl)-6,7,9,10-tetrahydroazepino[3,4-e]indazol-8(3H)-one] | 0.1 to 10 | 0.1 to 10 |
| O=C(C[C@@H]1Cc2cc(Cl)c3[nH]ncc3c2CN(Cc2ncc[nH]2)C1=O)N1CCC(N2Cc3ccccc3NC2=O)CC1 [Example 54, (S)-9-((1H-Imidazol-2-yl)methyl)-4-chloro-7-(2-oxo-2-(4-(2-oxo-1,2-dihydroquinazolin-3(4H)-yl)piperidin-1-yl)ethyl)-6,7,9,10-tetrahydroazepino[3,4-e]indazol-8(3H)-one] | 0.1 to 10 | 0.1 to 10 |
| CC(C)(C)CN1Cc2c(cc(Cl)c3[nH]ncc23)C[C@@H](CC(=O)N2CCC(c3cc4cnccc4[nH]c3=O)CC2)C1=O [Example 80, 1-[[(7S)-4-chloro-9-(2,2-dimethylpropyl)-3,6,7,8,9,10-hexahydro-8-oxoazepino[3,4-e]indazol-7-yl]acetyl]-4-(1,2-dihydro-2-oxo-1,6-naphthyridin-3-yl)-piperidine] | 10 to 100 | 10 to 100 |
| O=C(C[C@@H]1Cc2cc(Cl)c3[nH]ncc3c2CN(Cc2ccncc2)C1=O)N1CCC(c2cc3ccccc3cn2)CC1 [Example 85, (S)-4-chloro-7-(2-(4-(isoquinolin-3-yl)piperidin-1-yl)-2-oxoethyl)-9-(pyridin-4-ylmethyl)-6,7,9,10-tetrahydroazepino[3,4-e]indazol-8(3H)-one] | 10 to 100 | 10 to 100 |
